Reference: publication PMC10892871 (Viruses, 2024)
Where two headings read alike, the source gives them in different places.

Tests used:
[1] = tested on: wild type B.1 SARS-CoV-2; type: cell-based
[2] = tested on: VERO E6 cells
[3] = in vitro; details: monkey
[4] = DAA, concentration causing 10% cytotoxicity

Compound | IC50 ([1]; read-out: IC50 vs. B.1 Mean ± SD) | IC90 ([1]; read-out: IC90 vs. B.1 Mean ± SD) | CC10 Mean ± SD [2, 4] | CC50 ([2]; read-out: CC50 Mean ± SD, DAA) | IC90 vs. B.1 Mean ± SD [1] | CC10 Mean ± SD ([2]; mAb) | CC50 Mean ± SD ([2]; mAb) | CC50 [3]
O=c1nc(NO)ccn1[C@@H]1O[C@H](CO)[C@@H](O)[C@H]1O [EIDD-1931, reference compound] | 2.4 ± 0.4 µM | 2.5 ± 0.1 µM | 3.1 ± 0.4 µM | 43.3 ± 6 µM | – | – | – | –
cilgavimab | – | – | – | – | 1.385 ± 0.862 µg/mL | >0.36 µg/mL | >0.36 µg/mL | –
tixagevimab | – | – | – | – | 0.305 ± 0.071 µg/mL | >0.36 µg/mL | >0.36 µg/mL | –
bebtelovimab | – | – | – | – | 0.089 ± 0.009 µg/mL | >0.06 µg/mL | >0.06 µg/mL | –
CCC(CC)COC(=O)[C@H](C)N[P@](=O)(OC[C@H]1O[C@@](C#N)(c2ccc3c(N)ncnn23)[C@H](O)[C@@H]1O)Oc1ccccc1 [RDV, remdesivir, reference compound] | – | – | 4.2 ± 0.6 µM | – | – | – | – | 17.2 ± 0.2 µM
sotrovimab | – | – | – | – | 1.718 ± 0.594 µg/mL | >2.4 µg/mL | >2.4 µg/mL | –
CC(C)(C)[C@H](NC(=O)C(F)(F)F)C(=O)N1C[C@H]2[C@@H]([C@H]1C(=O)N[C@H](C#N)C[C@@H]1CCNC1=O)C2(C)C [NRM, nirmatrelvir, reference compound] | – | – | 2.9 ± 0.2 µM | – | – | – | – | 40.7 ± 4 µM
